{"source": "ChEMBL document CHEMBL1201862", "about": "“PubChem BioAssay data set” (2004)", "key": {"[1]": {"assay": "inhibitors of intracellular T. cruzi replication, confirmation, NIH3T3 host cells, beta-gal luminescence (AID 2044);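 also: luminescent beta-galactosidase reporter signal from transgenic T. cruzi replicating inside host cells; inhibitors lower the luminescence signal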", "assay_type": "functional, cell-based"}, "[2]": {"assay": "cytotoxicity toward NIH3T3 fibroblasts, dose response, counter-screen, cell-based, ATP luminescence, mouse fibroblasts (AID 2010);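 also: cells exposed to compound for about 90 hours before reading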", "assay_type": "functional"}, "INS1": {"tested_on": "INS1", "assay": "beta cell apoptosis inhibitors, cytokine rescue, dose response, luminescence, retest (AID 449756);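 also: cell death triggered by IL-1 beta plus TNF-alpha plus IFN-gamma mixture; protective hits raise ATP signal compared with cytokine alone wells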", "assay_type": "functional, cell-based", "settings": "Rattus norvegicus"}, "[3]": {"assay": "HepG2 cell cytotoxicity, dose response, cytotoxicity control for Shn3 inhibitor project, CellTiter-Glo, cherry-picked (AID 624134)", "assay_type": "functional, cell-based"}, "[4]": {"assay": "control 3'UTR Renilla luciferase suppression, dose response, counter-screen for Shn3 inhibitor project, cell-based, Clone20-Shn3RL, cherry-picked (AID 624133)", "assay_type": "functional"}, "Genome polyprotein": {"molecular_target": "Genome polyprotein (dengue virus type 2, UniProt P29990)", "sequence (P29990 2492-3391 limits assumed)": "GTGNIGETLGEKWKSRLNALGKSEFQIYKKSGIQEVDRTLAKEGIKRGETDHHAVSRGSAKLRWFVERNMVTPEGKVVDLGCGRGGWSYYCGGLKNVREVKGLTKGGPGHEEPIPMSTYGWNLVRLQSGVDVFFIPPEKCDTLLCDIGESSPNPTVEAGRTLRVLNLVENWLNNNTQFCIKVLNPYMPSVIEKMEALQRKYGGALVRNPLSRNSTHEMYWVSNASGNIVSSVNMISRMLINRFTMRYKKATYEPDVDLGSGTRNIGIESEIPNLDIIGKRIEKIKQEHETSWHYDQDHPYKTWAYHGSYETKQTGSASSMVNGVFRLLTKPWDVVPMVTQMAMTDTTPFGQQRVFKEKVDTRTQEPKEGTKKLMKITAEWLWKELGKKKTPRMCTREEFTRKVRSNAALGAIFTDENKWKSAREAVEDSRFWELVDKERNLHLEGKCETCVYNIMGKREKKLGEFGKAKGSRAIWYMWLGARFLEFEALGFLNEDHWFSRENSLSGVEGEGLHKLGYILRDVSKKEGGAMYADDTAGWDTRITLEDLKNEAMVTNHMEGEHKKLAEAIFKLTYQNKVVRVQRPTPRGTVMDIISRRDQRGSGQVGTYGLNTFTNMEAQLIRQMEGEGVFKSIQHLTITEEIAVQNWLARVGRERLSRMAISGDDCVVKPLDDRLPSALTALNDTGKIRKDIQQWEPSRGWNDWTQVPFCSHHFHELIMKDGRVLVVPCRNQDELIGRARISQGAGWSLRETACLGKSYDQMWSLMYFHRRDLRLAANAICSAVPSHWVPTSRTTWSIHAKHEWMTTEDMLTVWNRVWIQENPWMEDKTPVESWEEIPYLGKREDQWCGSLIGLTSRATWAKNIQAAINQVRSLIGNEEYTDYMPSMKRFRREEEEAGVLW", "assay": "Dengue-2 NS5 methyltransferase inhibitors, primary screen, biochemical, confirmation dose response (AID 588689)", "assay_type": "functional"}}, "note": "Active and inactive are the calls of the source."}
{"compound": "O=C(CNc1cccc2ccccc12)N/N=C/c1ccc([N+](=O)[O-])o1", "values": [{"measurement": "EC50", "setting": "[1]", "result": "< 0.1 µM (active)"}, {"measurement": "EC50", "setting": "[2]", "result": "> 60 µM (not active)"}, {"measurement": "AC50", "setting": "INS1", "result": "5.58 µM (active)"}]}
{"compound": "O=C(CC(O)(C(F)(F)F)C(F)(F)F)Nc1ccc(Cl)c(Cl)c1", "values": [{"measurement": "AC50", "setting": "INS1", "result": "2.44 µM (active)"}, {"measurement": "AC50", "setting": "[3]", "result": "3.7 µM (active)"}, {"measurement": "AC50", "setting": "[4]", "result": "5.67 µM (active)"}]}
{"compound": "O=C(O)CSc1cc(NS(=O)(=O)c2ccc(Br)cc2)c2ccccc2c1O", "values": [{"measurement": "IC50", "setting": "Genome polyprotein", "result": "7.66 µM (active)"}]}
{"compound": "Cc1ccc(NC(=O)C2=C(c3ccccc3)S(=O)(=O)CCS2(=O)=O)cc1", "values": [{"measurement": "EC50", "setting": "[1]", "result": "1.97 µM (active)"}, {"measurement": "EC50", "setting": "[2]", "result": "2.48 µM (active)"}, {"measurement": "AC50", "setting": "INS1", "result": "6.54 µM (active)"}, {"measurement": "IC50", "setting": "Genome polyprotein", "result": "> 100 µM (active)"}, {"measurement": "AC50", "setting": "[3]", "result": "12.5 µM (active)"}, {"measurement": "AC50", "setting": "[4]", "result": "4.49 µM (active)"}]}
